These results are taken from ChEMBL document CHEMBL1154273, “Synthesis and antimalarial activity of new atovaquone derivatives” (Eur J Med Chem, 2009).

As usually defined, the IC50 is the concentration needed to halve the response being measured.

Some results are limits rather than exact numbers.

This assay has as its system Plasmodium falciparum. Put plainly: Antimalarial activity against Plasmodium falciparum Nigerian assessed as [3H]hypoxanthine uptake after 48 hrs by liquid scintillation counting. The class given is functional, organism-based.

For `CCCCCCCCCC(=O)OC1=C([C@H]2CC[C@H](c3ccc(Cl)cc3)CC2)C(=O)C(=O)c2ccccc21`, the IC50 was over 100 nM.
For the compound `CCCCCCOC1=C([C@H]2CC[C@H](c3ccc(Cl)cc3)CC2)C(=O)c2ccccc2C1=O`, the IC50 came to 13.5 nM.
As for `CCOC1=C([C@H]2CC[C@H](c3ccc(Cl)cc3)CC2)C(=O)c2ccccc2C1=O`, the figure is 5.55 nM; as for `O=C1C(O)=C([C@H]2CC[C@H](c3ccc(Cl)cc3)CC2)C(=O)c2ccccc21` [ATOVAQUONE], 0.75 nM; as for `O=C(OC1=C([C@H]2CC[C@H](c3ccc(Cl)cc3)CC2)C(=O)c2ccccc2C1=O)c1ccccc1`, 1.25 nM.
As for `CCCCCCCCCCCCCCCCCCOC1=C([C@H]2CC[C@H](c3ccc(Cl)cc3)CC2)C(=O)c2ccccc2C1=O`, the figure is 32 nM; as for `CCCCCCCCCCOC1=C([C@H]2CC[C@H](c3ccc(Cl)cc3)CC2)C(=O)c2ccccc2C1=O`, 11 nM; as for `C=C[C@H]1CN2CC[C@H]1C[C@H]2[C@H](O)c1ccnc2ccc(OC)cc12` [QUININE], 180 nM.
As for `CCCCCCCCCOC1=C([C@H]2CC[C@H](c3ccc(Cl)cc3)CC2)C(=O)c2ccccc2C1=O`, the figure is 14 nM; as for `O=C1C(OCc2ccccc2)=C([C@H]2CC[C@H](c3ccc(Cl)cc3)CC2)C(=O)c2ccccc21`, 7.65 nM; as for `O=C(Cc1ccc(F)cc1)OC1=C([C@H]2CC[C@H](c3ccc(Cl)cc3)CC2)C(=O)c2ccccc2C1=O`, 1.75 nM.
For the compound `CCCCCC(=O)OC1=C([C@H]2CC[C@H](c3ccc(Cl)cc3)CC2)C(=O)c2ccccc2C1=O`, the IC50 is 1.25 nM.
Turning to `CCCCCCCC(=O)OC1=C([C@H]2CC[C@H](c3ccc(Cl)cc3)CC2)C(=O)c2ccccc2C1=O`, the IC50 stood at 1.5 nM.
As for `O=C(Cc1ccc(Cl)cc1)OC1=C([C@H]2CC[C@H](c3ccc(Cl)cc3)CC2)C(=O)c2ccccc2C1=O`, the figure is 1.65 nM.
Under `CC(=O)OC1=C([C@H]2CC[C@H](c3ccc(Cl)cc3)CC2)C(=O)c2ccccc2C1=O` stands 1.5 nM; under `O=C(/C=C/c1ccccc1)OC1=C([C@H]2CC[C@H](c3ccc(Cl)cc3)CC2)C(=O)c2ccccc2C1=O`, 1.45 nM; under `CCCCCCCCC(=O)OC1=C([C@H]2CC[C@H](c3ccc(Cl)cc3)CC2)C(=O)c2ccccc2C1=O`, 3.1 nM.
As for `CCCCCCCCCC(=O)OC1=C([C@H]2CC[C@H](c3ccc(Cl)cc3)CC2)C(=O)c2ccccc2C1=O`, the figure is 1.9 nM; as for `O=C(OC1=C([C@H]2CC[C@H](c3ccc(Cl)cc3)CC2)C(=O)c2ccccc2C1=O)c1ccc(F)cc1`, 1.6 nM.
In the case of `CCCCCCCCCCCCCCCCCC(=O)OC1=C([C@H]2CC[C@H](c3ccc(Cl)cc3)CC2)C(=O)c2ccccc2C1=O`, the half-maximal inhibitory concentration (IC50) turned out to be 52 nM.
